Experimental findings from patent US20030032813A1, “Rhodanine carboxylic acid derivatives for the treatment and prevention of metabolic bone disorders” (Angelika Esswein, Wolfgang Schaefer, and Konrad Honold, priority 1998, published 2003) are described below.

Some results are limits rather than exact numbers.

The first data set concerns adenylate cyclase. Description: assay for the capability of stimulating cyclic adenylate cyclase (cAMP formation). It is filed as biochemical. From the text: Compounds of general formula (I) were investigated in a suitable assay for the capability of stimulating cyclic adenylate cyclase.
(Changes in cAMP serve as a functional read-out for many G protein-coupled receptors.)
Take `CC(C)(C)c1cc(C=C2SC(=S)N(C(Cc3ccccc3)C(=O)O)C2=O)cc(C(C)(C)C)c1O` (stereo not drawn) [Example 3, 2-[5-(3,5-Di-tert-butyl-4-hydroxy-benzylidene)-4-oxo-2-thioxo-thiazolidin-3-yl]-3-phenyl-propionic acid]: the “% cAMP (Test conc. 50 μM)” value was 8%.
On the same count and under the same terms, in the case of `O=C(O)CN1C(=O)C(=CC=CC=Cc2cc3ccccc3s2)SC1=S` [Example 13, [5-(5-Benzo [b]thiophen-2-yl-penta-2,4-dienylidene)-4-oxo-2-thioxo-thiazolidin-3-yl]-acetic acid] it was 10%; in that of `O=C(O)CN1C(=O)C(=CC=Cc2cc3ccccc3s2)SC1=S` [Example 16, [5-(3-Benzo [b]thiophen-2-yl-allylidene)-4-oxo-2-thioxo-thiazoldin-3-yl]-acetic acid], 8%; in that of `CC(C=CC1=C(C)CCCC1(C)C)=C1SC(=S)N(CC(=O)O)C1=O` [Example 22, 5-[1-Methyl-3-[2,6,6-trimethyl-cyclohex-1-enyl)-allylidene]-4-oxo-2-thioxo-thiazolidin-3-yl-acetic acid], 10%.
Turning to `CC(C)(C)c1cc(C=C2SC(=S)N(CC(=O)O)C2=O)ccc1O` [Example 23, [5-(3-tert-Butyl-4-hydroxy-benzylidene)-4-oxo-2-thioxo-thiazolidin-3-yl]-acetic acid], the “% cAMP (Test conc. 50 μM)” value turned out to be 8%.
With `CC(C)(C)c1cc(C=C2SC(=S)N(CC(=O)O)C2=O)cc(C(C)(C)C)c1O` [Example 25, [5-(3,5-Di-tert-butyl-4-hydroxy-benzylidene)-4-oxo-2-thioxo-thiazolidin-3-yl]-acetic acid], the “% cAMP (Test conc. 50 μM)” value stood at 40%.
On to `CC(C=CC1=C(C)CCCC1(C)C)=CC=C1SC(=S)N(CC(=O)O)C1=O` [Example 46, 5-(3-Methyl-5-(2,6,6trimethyl-cyclohex-1-enyl)-penta-2,4-dienyliden]-4-oxo-2-thioxo-thiazolidin-3-yl-acetic acid], for which the “% cAMP (Test conc. 50 μM)” value was found to be 30%.
Regarding `CC1=C(C=C2SC(=S)N(CCC(=O)O)C2=O)C(C)(C)CCC1` [Example 59, 3-(4-Oxo-2-thioxo-5-(2,6,6-trimetyl-cyclohex-1-enylmethylene)-thiazolidin-3-yl]-propionic acid], the “% cAMP (Test conc. 50 μM)” value is recorded as 15%.
For `CC(C)(C)c1cc(C=C2SC(=S)N(CCC(=O)O)C2=O)cc(C(C)(C)C)c1O` [Example 60, 3-[5-(3,5-Di-tert-butyl-4-hydroxy-benzylidene)-4-oxo-2-thioxo-thiazolidin-3-yl]-propionic acid], the “% cAMP (Test conc. 50 μM)” value came out at 20%.
For `CC(C=CC1=C(C)CCCC1(C)C)=C1SC(=S)N(CCC(=O)O)C1=O` [Example 72, 3-5-[1-Methyl-3-(2,6,6-trimethyl-cyclohex-1-enyl)-allylidene]-4-oxo-2-thioxo-thiazolidin-3-yl-propionic acid], the “% cAMP (Test conc. 50 μM)” value came to 15%.

Tested on in a further data set: not given
Test: not given
For `O=C(O)CC(C(=O)O)N1C(=O)C(=Cc2cc3ccccc3s2)SC1=S` (stereo not drawn), the melting point (in general, the temperature, or range, at which the solid turns liquid) was 240 °C (dec.).
Same read-out and setting: in the case of `O=C(O)CN1C(=O)C(=Cc2cc3ccccc3s2)SC1=S` it was 292 to 294 °C; in that of `O=C(O)CN1C(=O)C(=Cc2ccc(O)cc2)SC1=S`, 230 to 232 °C; in that of `COc1cc(C)c(C=C2SC(=S)N(CC(=O)O)C2=O)cc1C`, 240 °C.
Same read-out and setting: next, `COc1ccc(C=C2SC(=S)N(CC(=O)O)C2=O)cc1C`: 235 to 236 °C; `CC(C)(C)c1cc(C=C2SC(=S)N(C(CCC(=O)O)C(=O)O)C2=O)cc(C(C)(C)C)c1O` (stereo not drawn): 130 °C (dec.); `O=C(O)CCC(C(=O)O)N1C(=O)C(=Cc2cc3ccccc3s2)SC1=S` (stereo not drawn): 220 to 221 °C.
On to `O=C(O)CN1C(=O)C(=Cc2ccc(OCc3ccccc3)c(OCc3ccccc3)c2)SC1=S`, for which the melting point is 187 to 188 °C.
As for `CC(C)(C)c1cc(C=C2SC(=S)N(C(CC(=O)O)C(=O)O)C2=O)cc(C(C)(C)C)c1O` (stereo not drawn), the melting point is 240 °C (dec.).
On the same count and under the same terms, next, `O=C(O)CN1C(=O)C(=Cc2ccc(OCc3ccccc3)cc2)SC1=S`: 205 to 206 °C; `CC(=C1SC(=S)N(CC(=O)O)C1=O)c1cc(O)cc(O)c1`: 184 to 188 °C; `O=C(O)COc1ccc(CC=C2SC(=S)N(CC(=O)O)C2=O)cc1`: 111 to 120 °C (dec.).
`O=C(O)CN1C(=O)C(=Cc2ccc(O)c(O)c2O)SC1=S`: the melting point was 263 °C (dec.).
Still for that read-out and setting: next, `COc1cc(O)c(C=C2SC(=S)N(CC(=O)O)C2=O)c(OC)c1`: 194 °C (dec.).
On the same count and under the same terms, in the case of `O=C(O)CCN1C(=O)C(=Cc2ccc(OCc3ccccc3)cc2)SC1=S` it was 188 to 191 °C; in that of `CC(C(=O)O)N1C(=O)C(=Cc2ccc(OCc3ccccc3)cc2)SC1=S` (stereo not drawn), 125 to 128 °C; in that of `O=C(O)CN1C(=O)C(=Cc2cc(OCc3ccccc3)ccc2O)SC1=S`, 130 to 133 °C.
The compound `COc1ccc(COc2ccc(C=C3SC(=S)N(CC(=O)O)C3=O)cc2)cc1` registered a melting point of 172 to 173 °C.
For `O=C(O)CN1C(=O)C(=Cc2ccc(OCc3ccc4c(c3)OCO4)cc2)SC1=S`, the melting point lay within 206 to 207 °C.
The same measure, in the same setting: next, `O=C(O)CCCCCN1C(=O)C(=Cc2cc(O)c(O)c(O)c2)SC1=S`: 212 to 214 °C.
The same measure, in the same setting: in the case of `COc1cccc(COc2ccc(C=C3SC(=S)N(CC(=O)O)C3=O)cc2)c1` it was 191 to 193 °C; in that of `Cc1cc(C=C2SC(=S)N(CC(=O)O)C2=O)cc(C)c1O`, 277 to 279 °C.
As for `CC(C)(C)c1cc(C=C2SC(=S)N(C(Cc3c[nH]c4ccccc34)C(=O)O)C2=O)cc(C(C)(C)C)c1O` (stereo not drawn), the melting point is 140 °C (dec.).
Still for that read-out and setting: in the case of `O=C(O)CN1C(=O)C(=CC2=CC=C(OCc3ccccc3)C(O)(O)C2)SC1=S` it was 178 to 180 °C; in that of `O=C(O)CN1C(=O)C(=Cc2cc(OCc3ccccc3)ccc2OCc2ccccc2)SC1=S`, 196 to 198 °C; in that of `CC(=O)Oc1cc(C=C2SC(=S)N(CC(=O)O)C2=O)cc(OC(C)=O)c1OC(C)=O`, 200 °C (dec.).
Regarding `O=C(O)CN1C(=O)C(=CCCc2ccccc2)SC1=S`, the melting point was in the range of 108 to 111 °C.
Same read-out and setting: in the case of `CN1C(=O)C(=Cc2cc(C(C)(C)C)c(O)c(C(C)(C)C)c2)SC1=S` it was more than 240 °C.
`COC(=O)CN1C(=O)C(=Cc2cc(C(C)(C)C)c(O)c(C(C)(C)C)c2)SC1=S` yielded a melting point of 165 to 170 °C.
For the compound `CCN(CC)C(=O)CN1C(=O)C(=Cc2cc(C(C)(C)C)c(O)c(C(C)(C)C)c2)SC1=S`, the melting point fell in the range of 223 to 225 °C.
Turning to `CC(=O)Nc1ccc2sc(C=C3SC(=S)N(CC(=O)O)C3=O)cc2c1`, the melting point was more than 240 °C.
As for `CCOc1cc2cc(C=CC=C3SC(=S)N(CC(=O)OC)C3=O)sc2cc1OCC`, the melting point was in the range of 211 to 215 °C.
As to `O=C(O)CN1C(=O)C(=CC2CCN(C(=O)OCc3ccccc3)CC2)SC1=S`, the melting point lay in the range of 114 to 115 °C.
For `CC(C=CC1=C(C)CCCC1(C)C)=CC=CC(C)=CC=C1SC(=S)N(CC(=O)O)C1=O`, the melting point was 144 °C (dec.).
Consider `CC1C(C=C2SC(=S)N(CC(=O)O)C2=O)=CC=C(O)C1(C)O` (stereo not drawn), for which the melting point is more than 240 °C.
`CCOc1c(C)cc(C=C2SC(=S)N(CC(=O)O)C2=O)c(C)c1OCC`: the melting point fell in the range of 185 to 190 °C.
The same measure, in the same setting: next, `CCOc1c(C)cc(C=CC=C2SC(=S)N(CC(=O)O)C2=O)c(C)c1OCC`: 210 °C (dec.).
Turning to `CCC1=C(C=CC(C)=CC=CC=C2SC(=S)N(CC(=O)O)C2=O)C(CC)(CC)CCC1`, the melting point was 192 to 195 °C.
`O=C(O)CCN1C(=O)C(=Cc2ccc3c(c2)OCO3)SC1=S` displayed a melting point of 174 to 176 °C.
Still for that read-out and setting: next, `O=C(O)CCN1C(=O)C(=Cc2cccc3ccccc23)SC1=S`: 159 to 161 °C; `O=C(O)CCN1C(=O)C(=CC=Cc2cc3ccccc3s2)SC1=S`: 246 to 248 °C.
In the case of `CCCCN(CCCC)c1ccc(C=C2SC(=S)N(CC(=O)O)C2=O)cc1`, the melting point fell in the range of 186 to 188 °C.
In the case of `CCCCCc1ccc(C=C2SC(=S)N(CC(=O)O)C2=O)cc1`, the melting point is 160 to 162 °C.
For `COc1cccc(C=C2SC(=S)N(CC(=O)O)C2=O)c1`, the melting point was 193 to 196 °C.
Still for that read-out and setting: next, `CCCCCCOc1ccccc1C=C1SC(=S)N(CC(=O)O)C1=O`: 148 to 150 °C; `CC(C)(C)c1cc(C=CC=C2SC(=S)N(CC(=O)O)C2=O)cc(C(C)(C)C)c1O`: more than 240 °C.
Still for that read-out and setting: in the case of `COc1cc(C=C2SC(=S)N(CC(=O)O)C2=O)cc(OC)c1O` it was 238 to 240 °C; in that of `O=C(O)CN1C(=O)C(=Cc2ccc(O)c(C(=O)O)c2)SC1=S`, more than 260 °C.
`COc1cc(C)c2c(c1C=C1SC(=S)N(CC(=O)O)C1=O)Oc1c(c(C)c(O)c3c1C(O)OC3=O)OC2=O` (stereo not drawn) displayed a melting point of more than 260 °C.
As for `Cc1[nH]c2ccccc2c1C=C1SC(=S)N(CC(=O)O)C1=O`, the melting point lay within 268 to 270 °C.
`CC(=O)Oc1ccc(C=C2SC(=S)N(CC(=O)O)C2=O)cc1OC(C)=O`: the melting point is 193 to 253 °C.
The compound `O=C(O)CN1C(=O)C(=Cc2ccc3c(c2)CCO3)SC1=S` yielded a melting point of 246 to 247 °C.
Consider `CC(C)(C)c1cc(C=C2SC(=S)N(C(Cc3ccccc3)C(=O)O)C2=O)cc(C(C)(C)C)c1O` (stereo not drawn) [Example 3, 2-[5-(3,5-Di-tert-butyl-4-hydroxy-benzylidene)-4-oxo-2-thioxo-thiazolidin-3-yl]-3-phenyl-propionic acid], for which the melting point is 160 °C (dec.).
The same measure, in the same setting: in the case of `O=C(O)CN1C(=O)C(=CC=CC=Cc2cc3ccccc3s2)SC1=S` [Example 13, [5-(5-Benzo [b]thiophen-2-yl-penta-2,4-dienylidene)-4-oxo-2-thioxo-thiazolidin-3-yl]-acetic acid] it was more than 240 °C.
The same measure, in the same setting: in the case of `CC(C=CC1=C(C)CCCC1(C)C)=C1SC(=S)N(CC(=O)O)C1=O` [Example 22, 5-[1-Methyl-3-[2,6,6-trimethyl-cyclohex-1-enyl)-allylidene]-4-oxo-2-thioxo-thiazolidin-3-yl-acetic acid] it was 100 °C (dec.); in that of `CC(C)(C)c1cc(C=C2SC(=S)N(CC(=O)O)C2=O)ccc1O` [Example 23, [5-(3-tert-Butyl-4-hydroxy-benzylidene)-4-oxo-2-thioxo-thiazolidin-3-yl]-acetic acid], more than 240 °C.
In turn, `CC(C)(C)c1cc(C=C2SC(=S)N(CC(=O)O)C2=O)cc(C(C)(C)C)c1O` [Example 25, [5-(3,5-Di-tert-butyl-4-hydroxy-benzylidene)-4-oxo-2-thioxo-thiazolidin-3-yl]-acetic acid] yielded a melting point of 120 to 121 °C.
Still for that read-out and setting: in the case of `CC(C=CC1=C(C)CCCC1(C)C)=CC=C1SC(=S)N(CC(=O)O)C1=O` [Example 46, 5-(3-Methyl-5-(2,6,6trimethyl-cyclohex-1-enyl)-penta-2,4-dienyliden]-4-oxo-2-thioxo-thiazolidin-3-yl-acetic acid] it was 153 to 155 °C; in that of `CC(C)(C)c1cc(C=C2SC(=S)N(CCC(=O)O)C2=O)cc(C(C)(C)C)c1O` [Example 60, 3-[5-(3,5-Di-tert-butyl-4-hydroxy-benzylidene)-4-oxo-2-thioxo-thiazolidin-3-yl]-propionic acid], 218 to 219 °C.
